Laboratory results: patent US8507539B2, “Potassium channel blockers and uses thereof” (Bionomics Limited, priority 2008, dated 2013)
Where two headings read alike, the source gives them in different places.

What was measured:
Assay type in all cases: cell-based
[1] = target: hKv1.3 (Homo sapiens, UniProt P22001); assay: Whole-cell patch-clamp block of Kv1.3 current in CHO cells stably expressing hKv1.3
Protocol: (§1) The effectiveness of the generated compounds in blocking the Kv1.3 current was assayed on CHO cells stably expressing hKv1.3. Cells were grown in F12 Kaighns' medium supplemented with 10% fetal calf serum, 2 mM L-glutamine, 1 mM Na^+ pyruvate, 100 units/ml penicillin, 100 Fg/ml streptomycin and 500 μg/ml G418 (to keep them under selection pressure). Kv1.3 currents were measured using the whole-cell configuration of the patch-clamp technique and were evoked by 500 ms depolarising voltage pulses to +40 mV from a holding potential of −80 mV at 30 sec intervals. Cells were continuously bathed in Ringers solution containing (mM): 160 NaCl, 4.5 KCl, 2.5 CaCl2, 1 MgCl2, 10 HEPES, pH 7.4, 290-310 mOsm. The internal (pipette) solution contained (mM): 134 KF, 2 MgCl2, 10 HEPES, 10 EGTA (pH 7.2, 290-310 mOsm). Series resistance compensation (60-80%) was applied when the peak current amplitude exceeded 2 nA. Compounds initially dissolved in DMSO were diluted in bath solution (final DMSO concentration 0.5%) and applied directly to the recording chamber at increasing concentrations allowing ample time for steady state block to be achieved between each concentration. Each compound was tested at 4-5 different concentrations in triplicate. IC50 values were determined by fitting the average normalised reduction of the current integral to the Hill equation.

[2] = target: T1, hKv1.5 (Homo sapiens, UniProt P22460); assay: Whole-cell patch-clamp inhibition of Kv1.5 currents in CHO cells stably transfected with hKv1.5; conditions: from IC50 values, CHO-hKv1.5 vs CHO-hKv1.3
T1 construct: expressed in transfected cells
Protocol: as §1
(§2) IC50 values for inhibition of Kv1.3 currents were determined as described above. IC50 values for inhibition of Kv1.1 and Kv1.5 currents were determined by the method above using Chinese Hamster Ovary (CHO) cells stably transfected with hKv1.1 and hKv1.5.

[3] = target: T2, hKv1.1 (Homo sapiens, UniProt Q09470); assay: Whole-cell patch-clamp inhibition of Kv1.1 currents in CHO cells stably transfected with hKv1.1; conditions: from IC50 values, CHO-hKv1.1 vs CHO-hKv1.3
T2 construct: expressed in transfected cells
Protocol: as §1, §2

[4] = CHO cells stably expressing hKv1.3, whole-cell patch clamp, reported as ranges, read-out: IC50 (Kv1.3)
[5] = IC50 for inhibition of Kv1.3 currents, CHO-hKv1.3, read-out: Potency for Kv1.3

T2 sequence (Q09470 whole entry): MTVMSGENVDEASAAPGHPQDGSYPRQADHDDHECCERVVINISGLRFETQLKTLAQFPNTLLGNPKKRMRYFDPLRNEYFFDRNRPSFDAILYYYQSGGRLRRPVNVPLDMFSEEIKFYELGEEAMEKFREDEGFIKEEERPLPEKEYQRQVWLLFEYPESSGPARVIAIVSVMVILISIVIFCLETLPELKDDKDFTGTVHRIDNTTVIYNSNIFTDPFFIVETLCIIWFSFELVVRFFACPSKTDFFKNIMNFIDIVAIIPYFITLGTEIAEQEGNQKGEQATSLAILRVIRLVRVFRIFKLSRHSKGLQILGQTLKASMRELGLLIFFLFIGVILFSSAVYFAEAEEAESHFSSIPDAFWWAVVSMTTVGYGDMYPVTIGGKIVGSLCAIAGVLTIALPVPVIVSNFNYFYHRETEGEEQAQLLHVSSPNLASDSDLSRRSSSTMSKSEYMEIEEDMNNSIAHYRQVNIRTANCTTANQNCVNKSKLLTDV
T1 sequence (P22460 whole entry): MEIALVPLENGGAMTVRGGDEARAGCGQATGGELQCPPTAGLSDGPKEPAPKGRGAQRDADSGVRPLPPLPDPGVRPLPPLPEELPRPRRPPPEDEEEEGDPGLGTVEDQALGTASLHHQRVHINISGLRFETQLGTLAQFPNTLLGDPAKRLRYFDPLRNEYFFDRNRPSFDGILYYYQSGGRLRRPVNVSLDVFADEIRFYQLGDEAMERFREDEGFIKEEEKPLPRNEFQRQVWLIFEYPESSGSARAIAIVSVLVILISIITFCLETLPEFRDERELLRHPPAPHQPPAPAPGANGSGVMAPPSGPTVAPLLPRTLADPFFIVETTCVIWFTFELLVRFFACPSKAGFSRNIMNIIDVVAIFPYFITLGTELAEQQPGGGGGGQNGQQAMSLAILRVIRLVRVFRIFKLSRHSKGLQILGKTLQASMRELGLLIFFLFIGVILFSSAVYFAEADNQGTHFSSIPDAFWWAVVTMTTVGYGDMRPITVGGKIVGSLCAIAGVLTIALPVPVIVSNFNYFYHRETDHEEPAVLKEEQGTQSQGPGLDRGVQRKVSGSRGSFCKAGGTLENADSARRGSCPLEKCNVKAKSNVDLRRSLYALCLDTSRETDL
Sequence of hKv1.3 (P22001 whole entry): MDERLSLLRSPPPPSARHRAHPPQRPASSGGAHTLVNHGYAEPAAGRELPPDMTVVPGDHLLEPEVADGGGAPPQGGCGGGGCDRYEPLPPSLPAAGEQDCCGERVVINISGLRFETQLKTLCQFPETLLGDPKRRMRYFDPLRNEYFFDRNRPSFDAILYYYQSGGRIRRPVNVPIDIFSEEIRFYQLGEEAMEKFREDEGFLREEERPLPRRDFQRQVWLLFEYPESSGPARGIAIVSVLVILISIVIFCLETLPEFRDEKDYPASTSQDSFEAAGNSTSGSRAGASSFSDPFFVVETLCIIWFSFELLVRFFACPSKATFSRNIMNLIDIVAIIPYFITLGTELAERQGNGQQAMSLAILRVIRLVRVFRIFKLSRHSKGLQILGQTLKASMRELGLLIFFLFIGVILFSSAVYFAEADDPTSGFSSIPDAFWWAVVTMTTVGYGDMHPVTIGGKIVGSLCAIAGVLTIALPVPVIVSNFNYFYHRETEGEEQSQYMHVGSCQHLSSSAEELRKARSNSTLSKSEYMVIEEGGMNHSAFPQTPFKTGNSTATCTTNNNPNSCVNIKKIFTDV

Row | SMILES | IC50 [1, 4] | IC50 [1, 5] | Selectivity for Kv1.3 over Kv1.5 [2] | Selectivity for Kv1.3 over Kv1.1 [3]
1 | CC(=O)c1c(OCCN2CCSCC2)c(OCCC(C)c2ccc(F)cc2)c2oc(C)nc2c1C (centres unmarked) [Example 13] | < 50 nM | < 50 nM | 11 fold | 15 fold
2 | CC(=O)c1c(OCCNC2CCCCC2)c(OCCC(C)c2ccc(F)cc2)c2oc(C)nc2c1C (centres unmarked) [Example 18, 5-Acetyl-6-(2-cyclohexylamino-ethoxy)-7-[3-(4-fluorophenyl)butoxy]-2,4-dimethyl-benzooxazole] | < 50 nM | < 50 nM | 12 fold | 11 fold
3 | CC(=O)c1c(OCCN2CCCC(F)(F)C2)c(OCCC(C)c2ccc(F)cc2)c2oc(C(F)F)nc2c1C (centres unmarked) [Example 31b, 5-Acetyl-7-[3-(4-fluorophenyl)butoxy]-6-(2-(3,3-difluoropiperidin-1-yl)-ethoxy)-4-methyl-2-difluoromethyl-benzo[d]oxazole] | < 50 nM | < 50 nM | 29 fold | 21 fold
4 | CC(=O)c1c(OCCN2CCCC(F)(F)C2)c(OCCC(C)c2ccc(F)cc2)c2oc(C)nc2c1Cl (centres unmarked) [Example 39, 5-Acetyl-4-chloro-7-(3-(4-fluorophenyl)butoxy)-6-(2-(3,3-difluoropiperidin-1-yl)ethoxy)-2-methyl-benzo[d]oxazole] | 50 to 200 nM | – | – | –
5 | CC(=O)c1c(OC2CCN(C3CCCC3)CC2)c(OCCC(C)c2ccc(F)cc2)c2oc(C)nc2c1C (centres unmarked) [Example 40c] | 50 to 200 nM | – | – | –
6 | CC(=O)c1c(OC2CN(C3CCCC3)C2)c(OCCC(C)c2ccc(F)cc2)c2oc(C)nc2c1C (centres unmarked) [Example 41b] | 50 to 200 nM | – | – | –
7 | CC(=O)c1c(OCCN2CCCCC2)c(OCCC(C)c2ccc(F)cc2)c2oc(C)nc2c1C (centres unmarked) [Example 42, 5-Acetyl-7-[3-(4-fluorophenyl)butoxy]-6-[2-(piperidin-1-yl)-ethoxy]-2,4-dimethyl-benzooxazole] | < 50 nM | < 50 nM | 24 fold | 25 fold
8 | CC(=O)c1c(OCCN2CCCC(F)(F)C2)c(OCCC(C)c2ccc(F)cc2)c2oc(C)nc2c1C (centres unmarked) [Example 43, 5-Acetyl-7-[3-(4-fluorophenyl)butoxy]-6-[2-(3,3-difluoropiperidin-1-yl)-ethoxy]-2,4-dimethyl-benzooxazole] | < 50 nM | – | – | –
